Values quoted from earlier work in US20180235982A1, “Treatment for Spirochete borne illness” (priority 2017, published 2018).

Conditions: no species, matrix or method given

- half-life: 12 to 14 h
SMILES: CN(C)c1ccc(O)c2c1C[C@H]1C[C@H]3[C@H](N(C)C)C(O)=C(C(N)=O)C(=O)[C@@]3(O)C(O)=C1C2=O [Minocycline]
